{"source": "ChEMBL document CHEMBL1137656", "about": "“Effects of serum on in vitro susceptibility testing of echinocandins” (Antimicrob Agents Chemother, 2007)", "format_in_all_cases": "functional", "key": {"[1]": {"system": "Aspergillus flavus", "assay": "Ratio of MIC50 for Aspergillus flavus isolate 0001-033 in presence of 50% human serum to MIC50 for Aspergillus flavus isolate 0001-033 in presence of RPMI 1640 medium"}, "[2]": {"system": "Aspergillus flavus", "assay": "Antifungal activity against Aspergillus flavus isolate 0001-061 after 24 hrs by CLSI M38-A broth microdilution method in presence of 50% human serum", "conditions": "isolate 0001-061, 24 h"}, "[3]": {"system": "Pichia kudriavzevii", "assay": "Antifungal activity against Candida krusei isolate 0001-058 after 24 hrs by CLSI M27-A2 broth microdilution method in presence of RPMI 1640 medium", "conditions": "isolate 0001-058, 24 h"}, "[4]": {"system": "Pichia kudriavzevii", "assay": "Antifungal activity against Candida krusei isolate 0001-058 after 24 hrs by CLSI M27-A2 broth microdilution method in presence of 50% human serum", "conditions": "isolate 0001-058, 24 h"}, "[5]": {"system": "Pichia kudriavzevii", "assay": "Antifungal activity against Candida krusei isolate 0013-054 after 24 hrs by CLSI M27-A2 broth microdilution method in presence of RPMI 1640 medium", "conditions": "isolate 0013-054, 24 h"}, "[6]": {"system": "Pichia kudriavzevii", "assay": "Antifungal activity against Candida krusei ATCC 6258 after 24 hrs by CLSI M27-A2 broth microdilution method in presence of 50% human serum", "conditions": "ATCC 6258, 24 h"}, "[7]": {"system": "Candida parapsilosis", "assay": "Antifungal activity against Candida parapsilosis isolate 0014-074 after 24 hrs by CLSI M27-A2 broth microdilution method in presence of RPMI 1640 medium", "conditions": "Lodderomyces parapsilosis, isolate 0014-074, 24 h"}, "[8]": {"system": "Candida albicans", "assay": "Antifungal activity against Candida albicans isolate 0021-076 after 24 hrs by CLSI M27-A2 broth microdilution method in presence of RPMI 1640 medium", "conditions": "isolate 0021-076, 24 h"}, "[9]": {"system": "Candida albicans", "assay": "Antifungal activity against Candida albicans isolate 0021-076 after 24 hrs by CLSI M27-A2 broth microdilution method in presence of 50% human serum", "conditions": "isolate 0021-076, 24 h"}, "[10]": {"system": "Clavispora lusitaniae", "assay": "Antifungal activity against Candida lusitaniae isolate 0015-049 after 24 hrs by CLSI M27-A2 broth microdilution method in presence of RPMI 1640 medium", "conditions": "isolate 0015-049, 24 h"}, "[11]": {"system": "Clavispora lusitaniae", "assay": "Antifungal activity against Candida lusitaniae isolate 0015-049 after 24 hrs by CLSI M27-A2 broth microdilution method in presence of 50% human serum"}, "[12]": {"system": "Clavispora lusitaniae", "assay": "Ratio of MIC50 for Candida lusitaniae isolate 0015-049 in presence of 50% human serum to MIC50 for Candida lusitaniae isolate 0015-049 in presence of RPMI 1640 medium"}, "[13]": {"system": "Candida parapsilosis", "assay": "Antifungal activity against Candida parapsilosis isolate 0036-030 after 24 hrs by CLSI M27-A2 broth microdilution method in presence of RPMI 1640 medium", "conditions": "Lodderomyces parapsilosis, isolate 0036-030, 24 h"}, "[14]": {"system": "Candida parapsilosis", "assay": "Antifungal activity against Candida parapsilosis isolate 0036-030 after 24 hrs by CLSI M27-A2 broth microdilution method in presence of 50% human serum", "conditions": "Lodderomyces parapsilosis, isolate 0036-030, 24 h"}, "[15]": {"system": "Candida parapsilosis", "assay": "Antifungal activity against Candida parapsilosis ATCC 22019 after 24 hrs by CLSI M27-A2 broth microdilution method in presence of RPMI 1640 medium", "conditions": "Lodderomyces parapsilosis, ATCC 22019, 24 h"}, "[16]": {"system": "Nakaseomyces glabratus", "assay": "Antifungal activity against Candida glabrata isolate 0022-012 after 24 hrs by CLSI M27-A2 broth microdilution method in presence of 50% human serum", "conditions": "isolate 0022-012, 24 h"}, "[17]": {"system": "Nakaseomyces glabratus", "assay": "Ratio of MIC50 for Candida glabrata isolate 0022-012 in presence of 50% human serum to MIC50 for Candida glabrata isolate 0022-012 in presence of RPMI 1640 medium"}, "[18]": {"system": "Nakaseomyces glabratus", "assay": "Antifungal activity against Candida glabrata isolate 0049-038 after 24 hrs by CLSI M27-A2 broth microdilution method in presence of 50% human serum", "conditions": "isolate 0049-038, 24 h"}, "[19]": {"system": "Candida tropicalis", "assay": "Antifungal activity against Candida tropicalis isolate 0022-021 after 24 hrs by CLSI M27-A2 broth microdilution method in presence of RPMI 1640 medium", "conditions": "isolate 0022-021, 24 h"}, "[20]": {"system": "Aspergillus terreus", "assay": "Antifungal activity against Aspergillus terreus isolate 0031-087 after 48 hrs by CLSI M38-A broth microdilution method in presence of RPMI 1640 medium", "conditions": "isolate 0031-087, 48 h"}, "[21]": {"system": "Aspergillus terreus", "assay": "Antifungal activity against Aspergillus terreus isolate 0031-087 after 48 hrs by CLSI M38-A broth microdilution method in presence of 50% human serum", "conditions": "isolate 0031-087, 48 h"}, "[22]": {"system": "Aspergillus terreus", "assay": "Ratio of MIC50 for Aspergillus terreus isolate 0031-087 in presence of 50% human serum to MIC50 for Aspergillus terreus isolate 0031-087 in presence of RPMI 1640 medium"}, "[23]": {"system": "Aspergillus niger", "assay": "Antifungal activity against Aspergillus niger isolate 0001-073 after 24 hrs by CLSI M38-A broth microdilution method in presence of 50% human serum", "conditions": "isolate 0001-073, 24 h"}, "[24]": {"system": "Aspergillus fumigatus", "assay": "Antifungal activity against Aspergillus fumigatus isolate 0002-0016 after 24 hrs by CLSI M38-A broth microdilution method in presence of RPMI 1640 medium", "conditions": "isolate 0002-0016, 24 h"}, "[25]": {"system": "Aspergillus fumigatus", "assay": "Ratio of MIC50 for Aspergillus fumigatus isolate 0002-0016 in presence of 50% human serum to MIC50 for Aspergillus fumigatus isolate 0002-0016 in presence of RPMI 1640 medium"}, "[26]": {"system": "Aspergillus fumigatus", "assay": "Antifungal activity against Aspergillus fumigatus isolate 0020-018 after 24 hrs by CLSI M38-A broth microdilution method in presence of RPMI 1640 medium", "conditions": "isolate 0020-018, 24 h"}, "[27]": {"system": "Aspergillus fumigatus", "assay": "Antifungal activity against Aspergillus fumigatus isolate 0020-018 after 24 hrs by CLSI M38-A broth microdilution method in presence of 50% human serum", "conditions": "isolate 0020-018, 24 h"}, "[28]": {"system": "Aspergillus fumigatus", "assay": "Ratio of MIC50 for Aspergillus fumigatus isolate […] in presence of 50% human serum to MIC50 for Aspergillus fumigatus isolate 0020-018 in presence of RPMI 1640 medium"}, "[29]": {"system": "Aspergillus fumigatus", "assay": "Antifungal activity against Aspergillus fumigatus isolate 0002-020 after 24 hrs by CLSI M38-A broth microdilution method in presence of 50% human serum", "conditions": "isolate 0002-020, 24 h"}, "[30]": {"system": "Aspergillus fumigatus", "assay": "Ratio of MIC50 for Aspergillus fumigatus isolate 0002-020 in presence of 50% human serum to MIC50 for Aspergillus fumigatus isolate 0002-020 in presence of RPMI 1640 medium"}, "[31]": {"system": "Aspergillus fumigatus", "assay": "Antifungal activity against Aspergillus fumigatus isolate 0002-021 after 24 hrs by CLSI M38-A broth microdilution method in presence of RPMI 1640 medium", "conditions": "isolate 0002-021, 24 h"}, "[32]": {"system": "Aspergillus fumigatus", "assay": "Antifungal activity against Aspergillus fumigatus isolate 0002-021 after 24 hrs by CLSI M38-A broth microdilution method in presence of 50% human serum", "conditions": "isolate 0002-021, 24 h"}, "[33]": {"system": "Aspergillus flavus", "assay": "Antifungal activity against Aspergillus flavus isolate 0001-033 after 24 hrs by CLSI M38-A broth microdilution method in presence of RPMI 1640 medium", "conditions": "isolate 0001-033, 24 h"}}, "note": "Numbered stars: 1 amine (or outer) side, 2 acyl side, 3 side chain; on linkers, the order of the positions; unused ones are H or OH. Bridge positions count the residues as written; N and C are the ends. Square brackets hold non-standard residues; d marks the D form. Peptide text beside a SMILES is read from it. * marks the point of attachment. pTerphenylCO(4''-OnC5H11) = CCCCCOc1ccc(-c2ccc(-c3ccc(C(=O)*)cc3)cc2)cc1; Orn(4R-OH,5R-OH) = O=C([C@H](C[C@@H](O)[C@@H](O)N[*:3])N[*:1])[*:2]; hTyr(3S-OH,4S-OH) = N[C@H](C(=O)O)[C@H](O)[C@@H](O)c1ccc(O)cc1; Pro(3S-OH,4S-Me) = C[C@H]1CN[C@H](C(=O)O)[C@H]1O; Hyp = O=C(O)[C@@H]1C[C@@H](O)CN1"}
{"molecule": "CCCCCOc1ccc(-c2ccc(-c3ccc(C(=O)N[C@H]4C[C@@H](O)[C@@H](O)NC(=O)[C@@H]5[C@@H](O)[C@@H](C)CN5C(=O)[C@H]([C@@H](C)O)NC(=O)[C@H]([C@H](O)[C@@H](O)c5ccc(O)cc5)NC(=O)[C@@H]5C[C@@H](O)CN5C(=O)[C@H]([C@@H](C)O)NC4=O)cc3)cc2)cc1", "note": "[ANIDULAFUNGIN] ({pTerphenylCO(4''-OnC5H11)}-[Orn(4R-OH,5R-OH)]T[Hyp][hTyr(3S-OH,4S-OH)]T[Pro(3S-OH,4S-Me)]; lactam 1-C)", "values": [{"measurement": "Ratio", "setting": "[1]", "result": 32}, {"measurement": "MIC50", "setting": "[2]", "result": 128, "unit": "µg/mL"}, {"measurement": "MIC50", "setting": "[3]", "result": 0.0313, "unit": "µg/mL"}, {"measurement": "MIC50", "setting": "[4]", "result": 1, "unit": "µg/mL"}, {"measurement": "MIC50", "setting": "[5]", "result": 0.125, "unit": "µg/mL"}, {"measurement": "MIC50", "setting": "[6]", "result": 2, "unit": "µg/mL"}, {"measurement": "MIC50", "setting": "[7]", "result": 0.004, "unit": "µg/mL"}, {"measurement": "MIC50", "setting": "[8]", "result": 0.5, "unit": "µg/mL"}, {"measurement": "MIC50", "setting": "[9]", "result": 128, "unit": "µg/mL"}, {"measurement": "MIC50", "setting": "[10]", "result": 0.125, "unit": "µg/mL"}, {"measurement": "MIC50", "setting": "[11]", "result": 1, "unit": "µg/mL"}, {"measurement": "Ratio", "setting": "[12]", "result": 8}, {"measurement": "MIC50", "setting": "[13]", "result": 1, "unit": "µg/mL"}, {"measurement": "MIC50", "setting": "[14]", "result": 128, "unit": "µg/mL"}, {"measurement": "MIC50", "setting": "[15]", "result": 0.5, "unit": "µg/mL"}, {"measurement": "MIC50", "setting": "[16]", "result": 1, "unit": "µg/mL"}, {"measurement": "Ratio", "setting": "[17]", "result": 32}, {"measurement": "MIC50", "setting": "[18]", "result": 2, "unit": "µg/mL"}, {"measurement": "MIC50", "setting": "[19]", "result": 0.0156, "unit": "µg/mL"}, {"measurement": "MIC50", "setting": "[20]", "result": 0.0156, "unit": "µg/mL"}, {"measurement": "MIC50", "setting": "[21]", "result": 0.25, "unit": "µg/mL"}, {"measurement": "Ratio", "setting": "[22]", "result": 16}, {"measurement": "MIC50", "setting": "[23]", "result": 0.5, "unit": "µg/mL"}, {"measurement": "MIC50", "setting": "[24]", "result": 2, "unit": "µg/mL"}, {"measurement": "Ratio", "setting": "[25]", "result": 64}, {"measurement": "MIC50", "setting": "[26]", "result": 0.5, "unit": "µg/mL"}, {"measurement": "MIC50", "setting": "[27]", "result": 128, "unit": "µg/mL"}, {"measurement": "Ratio", "setting": "[28]", "result": 256}, {"measurement": "MIC50", "setting": "[29]", "result": 0.5, "unit": "µg/mL"}, {"measurement": "Ratio", "setting": "[30]", "result": 64}, {"measurement": "MIC50", "setting": "[31]", "result": 0.002, "unit": "µg/mL"}, {"measurement": "MIC50", "setting": "[32]", "result": 128, "unit": "µg/mL"}, {"measurement": "MIC50", "setting": "[33]", "result": 4, "unit": "µg/mL"}]}
